What is called pEC50 is −log10 of the EC50, conventionally taken in molar units. In general, EC50 refers to the concentration needed to bring the measured effect to its halfway point.

The target of one assay is Src enzyme (Homo sapiens (Human), UniProt P12931). Briefly: Src enzyme activity (IMAP fluorescence polarization assay). For orientation: Polarisation of emitted light reports the rotation of a fluorescent probe.
For the next assay, the target named is Lyn enzyme (Homo sapiens (Human), UniProt P07948). The experiment in a line: Lyn enzyme activity (IMAP fluorescence polarization assay).
A further assay addresses Btk enzyme (His-Btk) (Homo sapiens (Human), UniProt Q06187). Briefly: Btk enzyme activity (IMAP fluorescence polarization assay). As to conditions: for EC50: read-out: EC50 Btk activity values; for EC50 / EC50 Btk activity values: IMAP, 60 min pre-incubation, 5 μM ATP.
For the next assay, the target named is Lck enzyme (Homo sapiens (Human), UniProt P06239). Briefly: Lck enzyme activity (IMAP fluorescence polarization assay). As to conditions: for EC50: read-out: EC50 Lck activity values.
In another assay the target is FynT enzyme (Homo sapiens (Human), UniProt P06241). The experiment in a line: FynT enzyme activity (IMAP fluorescence polarization assay). The class given is biochemical. As to conditions: 60 min pre-incubation, 0.2 μM ATP. In outline:
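Human FynT pre-incubated with compounds 60 min at room temperature, then reacted 2 h at room temperature with fluorescein-labelled p34cdc2 peptide (100 nM final). Stopped with IMAP binding solution; fluorescence polarization read after 60 min. Activity as % of ±ATP control difference; EC50 by curve fitting.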

Setting [1] is: read-out: EC50 Src activity values, IMAP, 60 min pre-incubation, 4 μM ATP.
Where [2] appears, read: read-out: EC50 Lyn activity values, 60 min pre-incubation, 2 μM ATP, bin bound in μM.
The mark [3] stands for this setting: IMAP, 60 min pre-incubation, 6 μM ATP, bin bound in μM.

SMILES strings stand for the structures. pEC50: −log10 of the molar value. Where two headings read alike, the source gives them in different places.

Btk enzyme (His-Btk), sequence (Q06187 whole entry): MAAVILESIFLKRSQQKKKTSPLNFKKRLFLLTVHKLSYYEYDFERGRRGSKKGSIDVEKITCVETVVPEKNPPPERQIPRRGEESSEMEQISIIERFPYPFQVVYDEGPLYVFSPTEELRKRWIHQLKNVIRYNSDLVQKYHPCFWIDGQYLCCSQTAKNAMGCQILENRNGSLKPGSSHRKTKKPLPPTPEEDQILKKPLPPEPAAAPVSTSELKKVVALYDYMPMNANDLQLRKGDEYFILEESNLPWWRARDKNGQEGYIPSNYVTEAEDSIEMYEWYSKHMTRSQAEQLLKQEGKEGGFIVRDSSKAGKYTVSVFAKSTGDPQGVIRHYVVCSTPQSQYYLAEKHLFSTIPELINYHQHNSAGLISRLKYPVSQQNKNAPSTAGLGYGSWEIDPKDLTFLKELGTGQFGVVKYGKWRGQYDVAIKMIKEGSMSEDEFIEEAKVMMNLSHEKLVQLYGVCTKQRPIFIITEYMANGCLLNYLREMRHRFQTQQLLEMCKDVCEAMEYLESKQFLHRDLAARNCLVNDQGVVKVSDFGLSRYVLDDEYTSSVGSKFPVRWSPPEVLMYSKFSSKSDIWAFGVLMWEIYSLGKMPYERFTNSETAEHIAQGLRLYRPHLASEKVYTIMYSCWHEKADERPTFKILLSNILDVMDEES
Lyn enzyme, sequence (P07948 whole entry): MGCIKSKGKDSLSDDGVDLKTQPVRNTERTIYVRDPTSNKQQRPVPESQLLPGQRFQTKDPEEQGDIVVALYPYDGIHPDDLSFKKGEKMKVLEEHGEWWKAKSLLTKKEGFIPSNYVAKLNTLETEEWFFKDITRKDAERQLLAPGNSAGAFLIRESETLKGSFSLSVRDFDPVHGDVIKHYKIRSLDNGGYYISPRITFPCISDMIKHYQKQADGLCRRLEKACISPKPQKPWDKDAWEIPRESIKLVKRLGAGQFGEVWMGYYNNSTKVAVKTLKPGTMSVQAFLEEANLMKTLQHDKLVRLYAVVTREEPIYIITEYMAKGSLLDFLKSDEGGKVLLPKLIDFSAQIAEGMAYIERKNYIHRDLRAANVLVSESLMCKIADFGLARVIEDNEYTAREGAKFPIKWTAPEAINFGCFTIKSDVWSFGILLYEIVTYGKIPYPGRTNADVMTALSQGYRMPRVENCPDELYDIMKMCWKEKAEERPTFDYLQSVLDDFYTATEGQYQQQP
FynT enzyme, sequence (P06241 other isoform, or with tags, fused parts or gaps): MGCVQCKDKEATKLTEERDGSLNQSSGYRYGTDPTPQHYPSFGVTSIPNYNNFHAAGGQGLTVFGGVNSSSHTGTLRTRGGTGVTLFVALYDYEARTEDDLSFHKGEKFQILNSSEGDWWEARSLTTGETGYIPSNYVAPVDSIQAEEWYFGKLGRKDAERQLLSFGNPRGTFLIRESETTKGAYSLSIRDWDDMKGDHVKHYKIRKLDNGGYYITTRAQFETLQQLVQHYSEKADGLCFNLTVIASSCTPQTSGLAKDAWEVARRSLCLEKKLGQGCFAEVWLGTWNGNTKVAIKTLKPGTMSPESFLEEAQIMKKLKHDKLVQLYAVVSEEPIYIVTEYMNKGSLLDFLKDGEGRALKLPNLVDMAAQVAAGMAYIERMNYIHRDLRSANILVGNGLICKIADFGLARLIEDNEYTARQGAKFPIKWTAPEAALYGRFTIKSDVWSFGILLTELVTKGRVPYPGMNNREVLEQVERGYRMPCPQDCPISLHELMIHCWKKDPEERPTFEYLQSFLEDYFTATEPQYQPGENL
Src enzyme, sequence (P12931 whole entry, looked up): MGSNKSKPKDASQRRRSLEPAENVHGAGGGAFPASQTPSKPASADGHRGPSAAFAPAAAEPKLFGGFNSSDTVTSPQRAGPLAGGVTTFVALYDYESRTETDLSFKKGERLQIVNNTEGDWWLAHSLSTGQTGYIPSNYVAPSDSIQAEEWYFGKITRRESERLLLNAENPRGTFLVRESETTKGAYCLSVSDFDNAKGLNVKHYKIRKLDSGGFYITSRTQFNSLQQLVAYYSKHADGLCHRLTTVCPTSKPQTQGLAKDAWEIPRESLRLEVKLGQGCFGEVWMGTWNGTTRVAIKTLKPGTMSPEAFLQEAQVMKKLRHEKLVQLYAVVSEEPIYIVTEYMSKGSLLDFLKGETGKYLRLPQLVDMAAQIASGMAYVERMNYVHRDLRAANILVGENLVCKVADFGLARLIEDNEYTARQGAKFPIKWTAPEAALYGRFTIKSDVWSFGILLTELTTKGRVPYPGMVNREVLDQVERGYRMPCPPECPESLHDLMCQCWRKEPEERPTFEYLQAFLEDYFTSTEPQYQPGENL
Lck enzyme, sequence (P06239 whole entry): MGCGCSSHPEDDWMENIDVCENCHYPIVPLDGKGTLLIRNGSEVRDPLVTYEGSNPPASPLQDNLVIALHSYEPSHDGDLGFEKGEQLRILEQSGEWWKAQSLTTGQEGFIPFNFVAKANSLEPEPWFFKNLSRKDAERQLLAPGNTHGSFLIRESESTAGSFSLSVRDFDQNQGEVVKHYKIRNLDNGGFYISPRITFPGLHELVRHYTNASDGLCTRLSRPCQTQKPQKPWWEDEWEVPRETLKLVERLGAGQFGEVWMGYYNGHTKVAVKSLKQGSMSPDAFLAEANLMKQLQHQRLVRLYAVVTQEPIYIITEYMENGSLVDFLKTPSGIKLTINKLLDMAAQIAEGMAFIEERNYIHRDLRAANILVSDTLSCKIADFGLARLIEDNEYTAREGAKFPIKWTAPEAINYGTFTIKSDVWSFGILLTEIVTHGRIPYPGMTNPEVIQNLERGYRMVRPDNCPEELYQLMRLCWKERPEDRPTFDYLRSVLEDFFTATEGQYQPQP

As to `CC#CC(=O)N1CCC[C@H]1c1nc(-c2ccc(C(=O)Nc3cc(C(F)(F)F)ccn3)cc2)c2c(N)nccn12` [Example 10, (S)-4-(8-Amino-3-(1-but-2-ynoylpyrrolidin-2-yl)imidazo[1,5-a]pyrazin-1-yl)-N-(4-(trifluoromethyl)pyridin-2-yl)benzamide], the pEC50 at Src enzyme (setting [1]) and at FynT enzyme was not above 6.00 each time. Moreover, the EC50 at Lyn enzyme (setting [2]) was not below 1 µM; at Btk enzyme (His-Btk) (bin bound in nM) it was less than 10 nM; on Lck enzyme (setting [3]) it was not below 1 µM.
Take `CCCc1ccnc(NC(=O)c2ccc(-c3nc([C@@H]4CCCCN4C(=O)/C=C/COC)n4ccnc(N)c34)cc2)c1` [Example 121, (S,E)-4-(8-amino-3-(1-(4-methoxybut-2-enoyl)piperidin-2-yl)imidazo[1,5-a]pyrazin-1-yl)-N-(4-propylpyridin-2-yl)benzamide]: the pEC50 at Src enzyme (setting [1]) and on FynT enzyme was not above 6.00 each time. The EC50 is not below 1 µM at Lyn enzyme (setting [2]), less than 10 nM at Btk enzyme (His-Btk) (bin bound in nM) and not below 1 µM at Lck enzyme (setting [3]).
Turning to `Nc1nccn2c([C@@H]3CCCCN3C(=O)c3ccnc(Cl)n3)nc(-c3ccc(C(=O)Nc4cccnn4)cc3)c12` [Example 74, (S)-4-(8-amino-3-(1-(2-chloropyrimidine-4-carbonyl)piperidin-2-yl)imidazo[1,5-a]pyrazin-1-yl)-N-(pyridazin-3-yl)benzamide], the negative-log EC50 (pEC50) at Src enzyme (setting [1]) was not above 6.00; on Btk enzyme (His-Btk) it was 6.00 to 7.00; on FynT enzyme, not above 6.00. Further, the EC50 on Lyn enzyme (setting [2]) and at Lck enzyme (setting [3]) was not below 1 µM throughout. The “EC50 Btk activity values” at Btk enzyme (His-Btk) (bin bound in μM) is less than 1 µM.
As for `COC/C=C/C(=O)N1CCCCC[C@H]1c1nc(-c2ccc(C(=O)Nc3ccccn3)cc2)c2c(N)nccn12` [Example 97, (E)-4-(8-amino-3-(1-(4-methoxybut-2-enoyl)azepan-2-yl)imidazo[1,5-a]pyrazin-1-yl)-N-(pyridin-2-yl)benzamide], the figures for the pEC50 on Src enzyme (setting [1]), on Btk enzyme (His-Btk) and on FynT enzyme were not above 6.00, 7.00 to 8.00 and not above 6.00, respectively. Also, the EC50 at Lyn enzyme (setting [2]) and on Lck enzyme (setting [3]) was not below 1 µM each time. The “EC50 Btk activity values” on Btk enzyme (His-Btk) (bin bound in nM) was less than 0.1 µM.
`COC/C=C/C(=O)N1CCCC[C@H]1c1nc(-c2ccc(C(=O)Nc3ccon3)cc2)c2c(N)nccn12` [Example 54, (S,E)-4-(8-amino-3-(1-(4-methoxybut-2-enoyl)piperidin-2-yl)imidazo[1,5-a]pyrazin-1-yl)-N-(isoxazol-3-yl)benzamide]: the pEC50 on Src enzyme (setting [1]) is not above 6.00; at Btk enzyme (His-Btk), 6.00 to 7.00; on FynT enzyme, not above 6.00. For the same molecule, the EC50 on Lyn enzyme (setting [2]) and on Lck enzyme (setting [3]) was not below 1 µM each time. The “EC50 Btk activity values” at Btk enzyme (His-Btk) (bin bound in μM) is less than 1 µM.
Consider `Nc1nccn2c([C@@H]3CCCN3C(=O)/C=C/CN3CCCC3)nc(-c3ccc(C(=O)Nc4ccccn4)cc3)c12` [Example 2, (S,E)-4-(8-amino-3-(1-(4-(pyrrolidin-1-yl)but-2-enoyl)pyrrolidin-2-yl)imidazo[1,5-a]pyrazin-1-yl)-N-(pyridin-2-yl)benzamide], for which the pEC50 at Src enzyme was not above 6.00; at Btk enzyme (His-Btk), 7.00 to 8.00; at Lck enzyme, not above 6.00; on FynT enzyme it was not above 6.00. Moreover, the EC50 on Lyn enzyme (EC50 Lyn activity values, 60 min pre-incubation, 2 μM ATP, bin bound in μM) is not below 1 µM. The “EC50 Btk activity values” on Btk enzyme (His-Btk) (bin bound in nM) is less than 0.1 µM.
Turning to `C=CC(=O)N1CCCC[C@H]1c1nc(-c2ccc(C(=O)Nc3cc(CCC)ccn3)c(F)c2)c2c(N)nccn12` [Example 26, (S)-4-(3-(1-Acryloylpiperidin-2-yl)-8-aminoimidazo[1,5-a]pyrazin-1-yl)-2-fluoro-N-(4-propylpyridin-2-yl)benzamide], the pEC50 at Src enzyme (setting [1]) and at FynT enzyme was not above 6.00 throughout. In addition, the EC50 at Lyn enzyme (setting [2]) is not below 1 µM; at Btk enzyme (His-Btk) (bin bound in nM), less than 10 nM; on Lck enzyme (setting [3]), not below 1 µM.
`Nc1nccn2c([C@@H]3CCCN3C(=O)/C=C/c3ccccc3)nc(-c3ccc(C(=O)Nc4ccccn4)cc3)c12` [Example 104, (S,E)-4-(8-amino-3-(1-cinnamoylpyrrolidin-2-yl)imidazo[1,5-a]pyrazin-1-yl)-N-(pyridin-2-yl)benzamide]: the pEC50 on Src enzyme (setting [1]) is not above 6.00; on Btk enzyme (His-Btk) it was 6.00 to 7.00; on Lck enzyme, 6.00 to 7.00; on FynT enzyme it was not above 6.00. Moreover, the EC50 on Lyn enzyme (setting [2]) was not below 1 µM. Also, the “EC50 Btk activity values” on Btk enzyme (His-Btk) (bin bound in μM) was less than 1 µM. For the same molecule, the “EC50 Lck activity values” on Lck enzyme (setting [3]) is less than 1 µM.
Regarding `C=CC(=O)NCc1nc(-c2ccc(C(=O)Nc3ccccn3)cc2)c2c(N)nccn12` [Example 29, 4-(3-(Acrylamidomethyl)-8-aminoimidazo[1,5-a]pyrazin-1-yl)-N-(pyridin-2-yl)benzamide], the pEC50 at Src enzyme (setting [1]) and at FynT enzyme was not above 6.00 throughout. Further, the values for the EC50 on Lyn enzyme (setting [2]), on Btk enzyme (His-Btk) (bin bound in nM) and on Lck enzyme (setting [3]) were not below 1 µM, less than 10 nM and not below 1 µM, respectively.
On to `CC#CC(=O)N1CCC[C@H]1c1nc(-c2ccc(C(=O)Nc3cc(OC)ccn3)cc2)c2c(N)nccn12` [Example 123, (S)-4-(8-amino-3-(1-but-2-ynoylpyrrolidin-2-yl)imidazo[1,5-a]pyrazin-1-yl)-N-(4-methoxypyridin-2-yl)benzamide], for which the pEC50 at Src enzyme (setting [1]) and on FynT enzyme was not above 6.00 throughout. Also, the values for the EC50 at Lyn enzyme (setting [2]), at Btk enzyme (His-Btk) (bin bound in nM) and on Lck enzyme (setting [3]) were not below 1 µM, less than 10 nM and not below 1 µM, respectively.
For the molecule `CCC#CC(=O)N1CCC[C@H]1c1nc(-c2ccc(C(=O)Nc3ccccn3)cc2)c2c(N)nccn12` [Example 34, (S)-4-(8-Amino-3-(1-pent-2-ynoylpyrrolidin-2-yl)imidazo[1,5-a]pyrazin-1-yl)-N-(pyridin-2-yl)benzamide], the pEC50 at Src enzyme (setting [1]) and at FynT enzyme was not above 6.00 each time. Also, the EC50 at Lyn enzyme (setting [2]) is not below 1 µM; at Btk enzyme (His-Btk) (bin bound in nM), less than 10 nM; at Lck enzyme (setting [3]) it was not below 1 µM.
Take `CC#CC(=O)N1CCC[C@H]1c1nc(-c2ccc(C(=O)Nc3nc4c(s3)CCCC4)cc2)c2c(N)nccn12` [Example 12, (S)-4-(8-Amino-3-(1-but-2-ynoylpyrrolidin-2-yl)imidazo[1,5-a]pyrazin-1-yl)-N-(4,5,6,7-tetrahydrobenzo[d]thiazol-2-yl)benzamide]: the pEC50 on Src enzyme (setting [1]) and at FynT enzyme was not above 6.00 throughout. Besides, the half-maximal effective concentration (EC50) is not below 1 µM at Lyn enzyme (setting [2]), less than 10 nM at Btk enzyme (His-Btk) (bin bound in nM) and not below 1 µM on Lck enzyme (setting [3]).
Take `CCc1cnc(NC(=O)c2ccc(-c3nc([C@@H]4CCCCN4C(=O)c4ccnc(Cl)n4)n4ccnc(N)c34)cc2)s1` [Example 118, (S)-4-(8-amino-3-(1-(2-chloropyrimidine-4-carbonyl)piperidin-2-yl)imidazo[1,5-a]pyrazin-1-yl)-N-(5-ethylthiazol-2-yl)benzamide]: the pEC50 on Src enzyme (setting [1]) and at FynT enzyme was not above 6.00 in each case. Also, the values for the EC50 at Lyn enzyme (setting [2]), at Btk enzyme (His-Btk) (bin bound in nM) and at Lck enzyme (setting [3]) were not below 1 µM, less than 10 nM and not below 1 µM, respectively.
Regarding `COC/C=C/C(=O)N1CCCC[C@H]1c1nc(-c2ccc(C(=O)Nc3nccc(C)n3)cc2)c2c(N)nccn12` [Example 88, (S,E)-4-(8-amino-3-(1-(4-methoxybut-2-enoyl)piperidin-2-yl)imidazo[1,5-a]pyrazin-1-yl)-N-(4-methylpyrimidin-2-yl)benzamide], the results for the pEC50 at Src enzyme (setting [1]), on Btk enzyme (His-Btk) and on FynT enzyme were not above 6.00, 6.00 to 7.00 and not above 6.00, respectively. Further, the EC50 at Lyn enzyme (setting [2]) and at Lck enzyme (setting [3]) was not below 1 µM in each case. At Btk enzyme (His-Btk) (bin bound in μM), the “EC50 Btk activity values” was less than 1 µM.
Consider `Cc1ccnc(NC(=O)c2ccc(-c3nc([C@@H]4CCCN4C(=O)/C=C/CN(C)C)n4ccnc(N)c34)cc2)c1` [Example 59, (S,E)-4-(8-amino-3-(1-(4-(dimethylamino)but-2-enoyl)pyrrolidin-2-yl)imidazo[1,5-a]pyrazin-1-yl)-N-(4-methylpyridin-2-yl)benzamide], for which the pEC50 on Src enzyme (setting [1]) was not above 6.00; at Btk enzyme (His-Btk), 7.00 to 8.00; on FynT enzyme, not above 6.00. The EC50 on Lyn enzyme (setting [2]) and on Lck enzyme (setting [3]) was not below 1 µM throughout. Also, the “EC50 Btk activity values” at Btk enzyme (His-Btk) (bin bound in nM) is less than 0.1 µM.
Take `C=CC(=O)N1CCCC[C@H]1c1nc(-c2ccc(C(=O)Nc3ncc(CC)s3)cc2)c2c(N)nccn12` [Example 117, (S)-4-(3-(1-acryloylpiperidin-2-yl)-8-aminoimidazo[1,5-a]pyrazin-1-yl)-N-(5-ethylthiazol-2-yl)benzamide]: the pEC50 on Src enzyme (setting [1]) and on FynT enzyme was not above 6.00 throughout. Moreover, the EC50 at Lyn enzyme (setting [2]) was not below 1 µM; at Btk enzyme (His-Btk) (bin bound in nM), less than 10 nM; at Lck enzyme (setting [3]) it was not below 1 µM.
For the molecule `COC/C=C/C(=O)N1CCCC[C@H]1c1nc(-c2ccc(C(=O)Nc3ccccn3)cc2)c2c(N)nccn12` [Example 16, (S,E)-4-(8-Amino-3-(1-(4-methoxybut-2-enoyl)piperidin-2-yl)imidazo[1,5-a]pyrazin-1-yl)-N-(pyridin-2-yl)benzamide], the pEC50 on Src enzyme (setting [1]) and at FynT enzyme was not above 6.00 each time. The EC50 is not below 1 µM on Lyn enzyme (setting [2]), less than 10 nM at Btk enzyme (His-Btk) (bin bound in nM) and not below 1 µM at Lck enzyme (setting [3]).

The record behind these values is US9758524B2, “4-imidazopyridazin-1-yl-benzamides as Btk inhibitors” (Merck Sharp & Dohme B.V., priority 2011, dated 2017).
